The source of these data is patent EP4806900A2, “RAS INHIBITORS” (Revolution Medicines, Inc., priority 2019, dated 2021).

Where “and” joins values, the source holds several entries; their conditions need not be identical. Identical values can stand only once.

This assay relates to NCI-H358 (K-Ras G12C). The assay can be described thus: CellTiter-Glo cell viability assay, NCI-H358. The assay is classed as cell-based, human. The note with it: Table 5; read-out: H358 Cell Viability assay data (K-Ras G12C, IC50). The procedure, abridged: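 Compounds dispensed directly onto plated NCI-H358 cells; plates equilibrated to room temperature on day 5 before luminescence read-out. Signal normalized to mean DMSO control (%) and fitted by four-parameter logistic.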
On to `C=CC(=O)N1CC[C@H](C(=O)N(C)[C@H](C(=O)N[C@H]2Cc3cc(O)cc(c3)-c3ccc4c(c3)c(c(-c3cccnc3[C@H](C)OC)n4CC)CC(C)(C)COC(=O)[C@@H]3CCCN(N3)C2=O)C(C)C)C1` [Compound A75, (2S)-N-[(8S,14S,20M)-22-ethyl-4-hydroxy-21-{2-[(1S)-1-methoxyethyl]pyridin-3-yl}-18,18-dimethyl-9,15-dioxo-16-oxa-10,22,28-triazapentacyclo[18.5.2.1^2,^6.1^10,^14.0^23,^27]nonacosa-1(26),2,4,6(29),20,23(27),24-heptaen-8-yl]-3-methyl-2-{N-methyl-1-[(3S)-1-(prop-2-enoyl)pyrrolidin-3-yl]formamido}butanamide], for which the IC50 was < 10 nM and 10 to 100 nM. With `C=CC(=O)N1CC[C@H](C(=O)N(C)[C@H](C(=O)N[C@H]2Cc3cc(O)cc(c3)-c3ccc4c(c3)c(c(-c3cnccc3[C@H](C)OC)n4CC)CC(C)(C)COC(=O)[C@@H]3CCCN(N3)C2=O)C(C)C)C1` [Compound A76] the figure was below 10 nM; with `C=CC(=O)N1CC[C@H](C(=O)N(C)[C@H](C(=O)N[C@H]2Cc3cc(O)cc(c3)-c3ccc4c(c3)c(c(-c3cnccc3C)n4CC)CC(C)(C)COC(=O)[C@@H]3CCCN(N3)C2=O)C(C)C)C1` [Compound A77], 10 to 100 nM; with `CCn1c(-c2ccccc2COC)c2c3cc(ccc31)-c1cc(O)cc(c1)C[C@H](NC(=O)[C@H](C(C)C)N(C)C(=O)[C@H]1CCN(C(=O)/C=C/CN(C)C)C1)C(=O)N1CCC[C@H](N1)C(=O)OCC(C)(C)C2` [Compound A79], 10 to 100 nM. `C=CC(=O)N1CC[C@H](C(=O)N(C)[C@H](C(=O)N[C@H]2Cc3cc(O)cc(c3)-c3ccc4c(c3)c(c(-c3c(CCOC)cccc3OC)n4CC)CC(C)(C)COC(=O)[C@@H]3CCCN(N3)C2=O)C(C)C)C1` [Compound A80]: the IC50 is 100 to 1000 nM.

For the molecule `C=CC(=O)N1CC[C@H](C(=O)N(C)[C@H](C(=O)N[C@H]2Cc3cc(O)cc(c3)-c3ccc4c(c3)c(c(-c3cc(F)cnc3COC)n4CC)CC(C)(C)COC(=O)[C@@H]3CCCN(N3)C2=O)C(C)C)C1` [Compound A82], the half-maximal inhibitory concentration (IC50) lay within 10 to 100 nM. In the case of `C=CC(=O)N1CC[C@H](C(=O)N(C)[C@H](C(=O)N[C@H]2Cc3cc(O)cc(c3)-c3ccc4c(c3)c(c(-c3cncc(COC)c3)n4CC)CC(C)(C)COC(=O)[C@@H]3CCCN(N3)C2=O)C(C)C)C1` [Compound A83], the concentration for half-maximal inhibition (IC50) lay in the range of 10 to 100 nM. Take `C=CC(=O)N1CC[C@H](C(=O)N(C)[C@H](C(=O)N[C@H]2Cc3cc(O)cc(c3)-c3ccc4c(c3)c(c(-c3ncccc3COC)n4CC)CC(C)(C)COC(=O)[C@@H]3CCCN(N3)C2=O)C(C)C)C1` [Compound A84]: the IC50 fell in the range of 100 to 1000 nM. With `C=CC(=O)N1CC[C@H](C(=O)N(C)[C@H](C(=O)N[C@H]2Cc3cc(O)cc(c3)-c3ccc4c(c3)c(c(-c3nccnc3COC)n4CC)CC(C)(C)COC(=O)[C@@H]3CCCN(N3)C2=O)C(C)C)C1` [Compound A85] the figure was 100 to 1000 nM; with `C=CC(=O)N1CC[C@H](C(=O)N(C)[C@H](C(=O)N[C@H]2Cc3cc(O)cc(c3)-c3ccc4c(c3)c(c(-c3ccncc3)n4C(C)(C)C#N)CC(C)(C)COC(=O)[C@@H]3CCCN(N3)C2=O)C(C)C)C1` [Compound A86], 10 to 100 nM.

In the case of `CCn1c(-c2cnccc2COC)c2c3cc(ccc31)-c1cc(O)cc(c1)C[C@H](NC(=O)[C@H](C(C)C)N(C)C(=O)[C@H]1CCN(C(=O)/C=C/CN(C)C)C1)C(=O)N1CCC[C@H](N1)C(=O)OCC(C)(C)C2` [Compound A87], the IC50 is 10 to 100 nM. With `CCn1c(-c2cnccc2COC)c2c3cc(ccc31)-c1cc(O)cc(c1)C[C@H](NC(=O)[C@H](C(C)C)N(C)C(=O)[C@H]1CCN(C(=O)C#CCN(C)C)C1)C(=O)N1CCC[C@H](N1)C(=O)OCC(C)(C)C2` [Compound A88] the figure was below 10 nM; with `C=CC(=O)N1CC[C@H](C(=O)N(C)[C@H](C(=O)N[C@H]2Cc3cc(O)cc(c3)-c3ccc4c(c3)c(c(-c3ccc(N5CCN(C)CC5)nc3)n4CC)CC(C)(C)COC(=O)[C@@H]3CCCN(N3)C2=O)C(C)C)C1` [Compound A89, (2S)-N-[(8S,14S)-22-ethyl-4-hydroxy-18,18-dimethyl-21-[6-(4-methylpiperazin-1-yl)pyridin-3-yl]-9,15-dioxo-16-oxa-10,22,28-triazapentacyclo[18.5.2.1^2,^6.1^10,^14.0^23,^27]nonacosa-1(26),2,4,6(29),20,23(27),24-heptaen-8-yl]-3-methyl-2-{N-methyl-1-[(3S)-1-(prop-2-enoyl)pyrrolidin-3-yl]formamido}butanamide], 10 to 100 nM. With `CCn1c(-c2ccccc2CN(C)C)c2c3cc(ccc31)-c1cc(O)cc(c1)C[C@H](NC(=O)[C@H](C(C)C)N(C)C(=O)c1nc(NC(=O)/C=C/CN(C)C)cs1)C(=O)N1CCC[C@H](N1)C(=O)OCC(C)(C)C2` [Compound A90] the figure was above 1000 nM; with `C=CC(=O)N1CC[C@H](C(=O)N(C)[C@H](C(=O)N[C@H]2Cc3cc(O)cc(c3)-c3ccc4c(c3)c(c(-c3cnccc3COC)n4CC)CC(C)(C)COC(=O)[C@@H]3CCCN(N3)C2=O)C(C)C)C1` [Compound A91], below 10 nM. With `C=CC(=O)N1CC[C@H](C(=O)N(C)[C@H](C(=O)N[C@H]2Cc3cc(O)cc(c3)-c3ccc4c(c3)c(c(-c3cccnc3CN(C)C)n4CC)CC(C)(C)COC(=O)[C@@H]3CCCN(N3)C2=O)C(C)C)C1` [Compound A92], the IC50 lay within 100 to 1000 nM. With `C=CC(=O)N1CC[C@H](C(=O)N(C)[C@H](C(=O)N[C@H]2Cc3cc(O)cc(c3)-c3ccc4c(c3)c(c(-c3cccnc3COC)n4CC#N)CC(C)(C)COC(=O)[C@@H]3CCCN(N3)C2=O)C(C)C)C1` [Compound A93] the figure was 10 to 100 nM. With `C=CC(=O)N1CC[C@H](C(=O)N(C)[C@H](C(=O)N[C@H]2Cc3nc(cs3)-c3ccc4c(c3)c(c(-c3cccnc3COC)n4CC)CC(C)(C)COC(=O)[C@@H]3CCCN(N3)C2=O)C(C)C)C1` [Compound A94] the figure was 10 to 100 nM; with `CCn1c(-c2cccnc2COC)c2c3cc(ccc31)-c1cc(O)cc(c1)C[C@H](NC(=O)[C@H](C(C)C)N(C)C(=O)[C@H]1CCN(C(=O)C#CCN3CCOCC3)C1)C(=O)N1CCC[C@H](N1)C(=O)OCC(C)(C)C2` [Compound A95, (2S)-N-[(8S,14S)-22-ethyl-4-hydroxy-21-[2-(methoxymethyl)pyridin-3-yl]-18,18-dimethyl-9,15-dioxo-16-oxa-10,22,28-triazapentacyclo[18.5.2.1^2,^6.1^10,^14.0^23,^27]nonacosa-1(26),2,4,6(29),20,23(27),24-heptaen-8-yl]-3-methyl-2-{N-methyl-1-[(3S)-1-[4-(morpholin-4-yl)but-2-ynoyl]pyrrolidin-3-yl]formamido}butanamide], 10 to 100 nM. Turning to `CCn1c(-c2cccnc2COC)c2c3cc(ccc31)-c1cc(O)cc(c1)C[C@H](NC(=O)[C@H](C(C)C)N(C)C(=O)[C@H]1CCN(C(=O)C#CCN(C)C)C1)C(=O)N1CCC[C@H](N1)C(=O)OCC(C)(C)C2` [Compound A96], the IC50 is below 10 nM. For `CCn1c(-c2cccnc2COC)c2c3cc(ccc31)-c1cc(O)cc(c1)C[C@H](NC(=O)[C@H](C(C)C)N(C)C(=O)C1CN(C(=O)C#CCN(C)C)C1)C(=O)N1CCC[C@H](N1)C(=O)OCC(C)(C)C2` [Compound A97], the IC50 lay in the range of 10 to 100 nM. With `C=CC(=O)N1CC[C@H](C(=O)N(C)[C@H](C(=O)N[C@H]2Cc3cc(O)cc(c3)-c3ccc4c(c3)c(c(-c3ccc(C5CCN(C)CC5)nc3)n4CC)CC(C)(C)COC(=O)[C@@H]3CCCN(N3)C2=O)C(C)C)C1` [Compound A98] the figure was 10 to 100 nM.
